According to US8642759B2, “Benzene sulfonamide thiazole and oxazole compounds” (GlaxoSmithKline LLC, priority 2008, dated 2014):
Read-outs that look alike come from different tables or passages of the source.

Assays:
[1] = test system: Human melanoma cancer cells (SK-MEL-28); experiment: Cell growth inhibition assay (CellTiter-Glo), SK-MEL-28; format: cell-based; settings: SK-MEL-28, 72 h, 3 days incubation
[2] = molecular target: T1, His6-tagged BRAFV600E full-length (amino acids 2-766) (Homo sapiens, UniProt P15056, V600E); experiment: biochemical; format: biochemical
T1 construct: BRAFV600E full-length (amino acids 2-766); His6; made in house
T1 sequence (P15056 2-766 V600E): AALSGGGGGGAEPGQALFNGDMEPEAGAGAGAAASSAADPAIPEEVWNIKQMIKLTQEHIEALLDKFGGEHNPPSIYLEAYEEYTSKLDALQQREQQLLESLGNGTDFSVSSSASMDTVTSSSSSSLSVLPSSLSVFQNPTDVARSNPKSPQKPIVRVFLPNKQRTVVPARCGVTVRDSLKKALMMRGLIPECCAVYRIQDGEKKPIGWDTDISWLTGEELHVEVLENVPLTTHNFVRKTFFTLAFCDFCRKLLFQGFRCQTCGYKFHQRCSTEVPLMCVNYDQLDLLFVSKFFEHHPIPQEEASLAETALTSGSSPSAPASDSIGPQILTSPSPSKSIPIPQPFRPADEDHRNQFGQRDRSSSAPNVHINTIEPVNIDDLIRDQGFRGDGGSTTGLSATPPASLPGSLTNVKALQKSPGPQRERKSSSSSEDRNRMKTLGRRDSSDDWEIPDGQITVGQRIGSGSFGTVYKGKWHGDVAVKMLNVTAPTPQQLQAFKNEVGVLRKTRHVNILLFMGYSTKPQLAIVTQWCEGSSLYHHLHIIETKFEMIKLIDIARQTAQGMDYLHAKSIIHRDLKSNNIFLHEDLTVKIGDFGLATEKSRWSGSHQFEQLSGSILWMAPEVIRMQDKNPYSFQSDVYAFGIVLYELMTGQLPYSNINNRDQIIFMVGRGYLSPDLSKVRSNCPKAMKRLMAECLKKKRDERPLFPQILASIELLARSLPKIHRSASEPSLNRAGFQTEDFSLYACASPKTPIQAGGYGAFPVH
Description: Compounds of the present invention were tested for B-Raf protein serine kinase inhibitory activity in a B-Raf Accelerated MEK ATPase assay (BRAMA). […] The BRAMA assay is a high sensitivity assay which measures an intrinsic MEK-mediated ATP hydrolysis uncoupled from downstream ERK phosphorylation by coupling the formation of ADP to NADH oxidation through the enzymes pyruvate kinase and lactate dehydrogenase. When ADP production is initiated by addition of catalytic amounts of an activated Raf enzyme and non-phosphorylated MEK, one observes robust ADP production concomitant with Raf-mediated phosphorylation of MEK. The method is disclosed in: C. Rominger, M. Schaber, E. May. Assay for B-Raf Activity Based on Intrinsic MEK ATPase Activity.

[3] = test system: Human colon tumor cells (Colo205); experiment: Cell growth inhibition assay (CellTiter-Glo), Colo205; format: cell-based; settings: COLO 205, 72 h, 3 days incubation
Description: Human colon tumor cells (Colo205) were cultured in RPMI (Mediatech 50-020-PB) containing 10% FBS and 1% penicillin-streptomycin.
The next day, compounds were diluted as follow: For 96-well assays, 13.5 μL of compound in DMSO were diluted using nine (9) serial 1:3 dilutions of 4.5 μL in 9 μL of DMSO. Medium (270 μL/well of RPMI with 10% FBS and 1% penicillin-streptomycin) was added to the plates. Aliquots (7 μL) were added to cells in the final assay giving a final DMSO concentration of 0.2%. For 384-well assays, 15 μL of compound in DMSO were diluted using nine (9) serial 1:3 dilutions of 5 μL in 10 μL of DMSO, followed by a further dilution of 5 μL of compound with 95 μL of medium, of which 2 μL were added to cells in the final assay giving a final DMSO concentration of 0.2%. Cells were incubated at 37° C., 5% CO2 for 3 days.
Total ATP was measured (as a surrogate estimate of cell number) using CellTiter-Glo® reagent (Promega G7571). Briefly, plates were removed from the incubator and allowed to equilibrate to room temperature for 30 minutes. CellTiter-Glo® (25 μL or 55 μL for 384-well or 96-well assays, respectively) reagent was added to each well and plates were shaken on an orbital plate shaker for 2 minutes. Plates were incubated without shaking for a further 30 minutes and read on an LJL Analyst GT reader in luminometer mode with an integration time of 0.5 seconds per well. Percent inhibition of cell growth was calculated relative to DMSO vehicle-treated control wells.

A375P F11s = experiment: Dose dependent tumor inhibition, A375P F11s subcutaneous xenograft; format: in vivo, athymic mice; parameters: key: −: indicates no response; +: indicates growth delay (1-2× doubling); ++: indicates growth delay (>2× doubling); +++: indicates stable disease; ++++: indicates partial regression; +++++: indicates complete regression; settings: oral, 14-day period
Description: A375P F11s were cultured in RPMI 1640 medium supplemented with 10% fetal bovine serum, 1% Penicillin-streptomycin and 1% sodium pyruvate. Tumor cells (2×10^6 A375P F11s) were implanted subcutaneously into the right flank of athymic mice on Day 1. To facilitate their growth, A375P F11s cells were suspended in Matrigel diluted 1:1 in phosphate-buffered saline before implantation. When tumors had reached approximately 200 mm^3 in volume (Day 19-22), tumor-bearing mice were randomized into study groups (n=7 or 8). Animals were dosed orally once or twice daily for a 14-day period. […] Tumor growth was measured twice a week using calipers for the duration of the study. Tumor volumes were calculated as a product of (length×width×width)/2 and median values were used to compare groups. Complete regressions (CR) were defined as three consecutive tumor measurements of ≦13.5 mm^3. Partial regressions were defined as three consecutive measurements of ≦50% of starting tumor volume. Tumor growth delay was defined as the difference in time taken for treated and control groups to reach 1000 mm^3 (T-C1000).

[4] = test system: cancer cell lines encoding B-Raf V600E mutation; experiment: 3 day proliferation assay, panel of 22 cancer cell lines encoding B-Raf V600E; format: cell-based; settings: count of cell lines of the panel of 22
[5] = Table 3a, read-out: Activity in SK-MEL-28 Tumor Cells
[6] = Table 3b (later runs), average for the one or more runs, read-out: IC50 for SK-MEL-28
[7] = Table 1a, highest pIC50 for the one or more runs, read-out: B-Raf Activity
[8] = Table 1b (later runs), average pIC50 for the one or more runs, read-out: B-Raf plC50
[9] = Table 2a, read-out: Activity in Colo205 Tumor Cells
[10] = Table 2b (later runs), average for the one or more runs, read-out: IC50 for Colo205
[11] = Table 1a, highest pIC50 for the one or more runs

With `CC(C)c1nc(-c2cccc(NS(=O)(=O)c3cc(F)ccc3F)c2F)c(-c2ccnc(NCCCNS(C)(=O)=O)n2)s1` [Example 195] the IC50 [1, 5] was < 100 nM, the IC50 [1, 6] was < 100 nM and the IC50 [2, 7] was < 100 nM. The IC50 [2, 8] was ≤ 3.16 nM, the IC50 [3, 9] was < 100 nM and the IC50 [3, 10] was < 100 nM.

`CC(C)(C)c1nc(-c2cccc(NS(=O)(=O)c3c(F)cccc3F)c2F)c(-c2ccnc(N)n2)s1` [Example 58a, N-{3-[5-(2-Amino-4-pyrimidinyl)-2-(1,1-dimethylethyl)-1,3-thiazol-4-yl]-2-fluorophenyl}-2,6-difluorobenzenesulfonamide] was tested, and the Response (A375P F11s; 1 mg/kg qd) was “+”, the Response (A375P F11s; 10 mg/kg qd) was “++ (+)” and the Response (A375P F11s; 100 mg/kg bid) was “++++ (+)”. The Response (A375P F11s; 100 mg/kg qd) was “++++ (+)”, the Response (A375P F11s; 300 mg/kg bid) was “++++ (+)” and the Response (A375P F11s; 300 mg/kg qd) was “++++ (+)”. The “cancer cell lines encoding B-Raf V600E not sensitive (gIC50>1000M)” value [4] was 4 out of 22 and the “cancer cell lines encoding B-Raf V600E with intermediate response (gIC50≧100 nM and <1000 nM)” value [4] was 2 out of 22.

With `CC(C)c1nc(-c2ccc(F)c(NS(=O)(=O)c3c(F)cccc3F)c2)c(-c2ccnc(NCCOCCO)n2)s1` [Example 166] the “B-Raf Activity” value [2, 11] was “++ (indicates at least one pIC50 measurement greater than 6 against B-Raf but no measurement greater than pIC50 of 7)”.

In the case of `CC(C)c1nc(-c2ccc(F)c(NS(=O)(=O)c3c(F)cccc3F)c2)c(-c2ccnc(NCCCCN(C)C)n2)s1` [Example 167], the “B-Raf Activity” value [2, 11] is reported as “++ (indicates at least one pIC50 measurement greater than 6 against B-Raf but no measurement greater than pIC50 of 7)”.

For `COCCCNc1nccc(-c2sc(C(C)C)nc2-c2ccc(F)c(NS(=O)(=O)c3c(F)cccc3F)c2)n1` [Example 168], the “B-Raf Activity” value [2, 11] was “++ (indicates at least one pIC50 measurement greater than 6 against B-Raf but no measurement greater than pIC50 of 7)”.

For `CC(C)c1nc(-c2cccc(NS(=O)(=O)c3cc(F)ccc3F)c2F)c(-c2ccnc(NCCCNC(=O)CO)n2)s1` [Example 196], the IC50 [1, 5] was < 100 nM, the IC50 [1, 6] was < 100 nM and the IC50 [2, 7] was < 100 nM. The IC50 [2, 8] was ≤ 3.16 nM, the IC50 [3, 9] was < 100 nM and the IC50 [3, 10] was < 100 nM.

For `CC(C)c1nc(-c2ccc(F)c(NS(=O)(=O)c3c(F)cccc3F)c2)c(-c2ccnc(NCCN3CCOCC3)n2)s1` [Example 165], the “B-Raf Activity” value [2, 11] was “++ (indicates at least one pIC50 measurement greater than 6 against B-Raf but no measurement greater than pIC50 of 7)”.
